Results taken from paper PMC9016712 (ACS Chemical Biology, 2022).
Read-outs that look alike come from different tables or passages of the source. [ ]: non-standard residue; d: D form. Dap = NC[C@H](N)C(=O)O

What was measured:
MASP-2 [1] = test: recombinant catalytic fragment of human MASP-2; settings: up to 1 h
MASP-2 [2] = settings: cited from earlier work
MASP-1 = settings: cited from earlier work
trypsin = settings: fold more potent than tested SFMI2 variants; cited from earlier work

| cleaved bond (MASP-2 [1]) | Substance | MASP-2 inhibition (MASP-2 [2]) | MASP-2 inhibition (MASP-2 [2]; listed as wild-type SFTI) | MASP-1 inhibition (MASP-1) | potency on trypsin relative to SFMI2 variants (trypsin) |
| --- | --- | --- | --- | --- | --- |
| Arg5-Ser6, 1 h | Ac-GY[Dap]SRSYPPVCIPD-NH2 | – | – | – | – |
| Arg5-Ser6, 1 h | HELM PEPTIDE1{[ac].G.Y.C.S.R.S.Y.P.P.V.C.I.P.D.[am]}$PEPTIDE1,PEPTIDE1,4:R3-12:R3$$$V2.0 (SMILES CC[C@H](C)[C@H](NC(=O)[C@@H]1CSSC[C@H](NC(=O)[C@H](Cc2ccc(O)cc2)NC(=O)CNC(C)=O)C(=O)N[C@@H](CO)C(=O)N[C@@H](CCCNC(=N)N)C(=O)N[C@@H](CO)C(=O)N[C@@H](Cc2ccc(O)cc2)C(=O)N2CCC[C@H]2C(=O)N2CCC[C@H]2C(=O)N[C@@H](C(C)C)C(=O)N1)C(=O)N1CCC[C@H]1C(=O)N[C@@H](CC(=O)O)C(N)=O) | – | – | – | – |
| – | SFTI: 14-amino acid sunflower trypsin inhibitor, smallest natural canonical trypsin inhibitor, cyclic | does not inhibit the MASPs | does not inhibit MASP-2 at all | does not inhibit the MASPs | about 1000 fold |
